Experimental findings from US11434195B2, “Compositions and methods for treatment of central nervous system tumors” (UNIVERSITY OF FLORIDA RESEARCH FOUNDATION, INC., priority 2017, dated 2022) are described below.

Entries after “also recorded” stand apart in the source; their conditions may differ. Counter-ions that a name gives are not always drawn. Like-named read-outs stand apart in the source and are kept apart here.

For data set [1], the system named is primary human hepatocytes. The data set can be described thus: Survival of primary human hepatocytes. The data set is classed as cell-based. Conditions: up to 50 μM. The procedure: The cell integrity and structural architecture were not altered following incubation with AIPs for a week (see FIG. 11B).
Data set [2] deals with CA1 cancer stem cell-derived carcinoid bodies ('carcinospheres'). In words: Carcinoid sphere model of tumor-initiating glioblastoma stem cells. Format: cell-based. Conditions: Homo sapiens. The procedure: Human glioblastoma cell lines CA1 (also sometimes referred to as BT73) and L1 are cells are available from the Florida Center for Brain Tumor Research University of Florida Biorepository. Glioma cells (for example CA1, U87MG or L1), are suspended by trituration as single cells and plated at a density of about 25,000 cells/mL in low adhesion plates in Neurobasal® medium containing 1% methylcellulose and growth factors. The cultures are treated with single or repeated doses of AIPs (ranging from 0.1 to 20 […]) or vehicle (control) and maintained for 24 hours, 72 hours and 7 days. The number and size of ‘carcinoid’ spheres are quantitated by inverted phase contrast microscopy, and spheres collected for analysis for determination of survival and growth/proliferation.
This suppression of tumor-initiating glioblastoma multiforme stem/progenitor cells was determined using a ‘carcinoid sphere’ model in serum- and in anchorage-free media. The ability to block cancer stem cell activation and to destroy them is very useful for strategies to prevent glioblastoma recurrence. Here, AIPs blocked completely the activation of tumor-initiating CA1 cells and formation of carcinospheres at ≥2 μM concentrations. […] FIG. 9B is a set of representative photographs of the cells treated as indicated.
With respect to methods, generation of carcinoid spheres from GBM was performed essentially as described previously (Cao et al., Composite fatty acid ether amides suppress growth of liver cancer cells in vitro and in an in vivo allograft mouse model, Cell. Oncol. 36(3):247-257, 2013 and Reinartz et al., Functional Subclone Profiling for Prediction of Treatment-Induced Intratumor Population Shifts and Discovery of Rational Drug Combinations in Human Glioblastoma, Clinical Cancer Research: an official journal of the American Association for Cancer Research 23(2):562-574, 2017). […] The number and size of spheres were quantitated by inverted phase contrast microscopy. […]

A short description of data set [3]: Tissue accumulation after intraperitoneal injection. Format: in vivo. Particulars: mice, hydrochloride. The procedure:
To assure brain bioavailability of the inventive compounds, time-dependent brain, liver and […] AIP accumulation was measured after intraperitoneal injection of 2.0 mg AIP2. Mice were sacrificed at specific times following injection. Tissues (blood, brain and liver) were taken, and the lipids extracted, loaded on silica-gel column, washed with diethyl ether, and eluted with 10% ethyl acetate in hexane. The eluates were further purified using gradient HPLC on a C8 reverse phase column and the AIP-corresponding fraction was collected and quantitatively analyzed by […], coupled with electrospray ionization-mass-spectroscopy using internal AIP standard.

Data set [4] deals with adherent CA1 human glioblastoma multiforme cells. In words: Viability/proliferation of adherent CA1 glioblastoma cells (MTS). The data set is classed as cell-based. Conditions: for IC50: Homo sapiens. The procedure:
In addition, glioma cells were cultured (adherent) in DMEM/F12 medium with 10% FBS to attain about 70% confluency. AIP (ranging from about 1 μM to about 100 μM) was added once or twice as above for 24 hours, 48 hours, or 72 hours and analyzed at these time points for proliferation, cell death and markers.
Ales were screened in patient glioblastoma cells CA1 cells proliferating in adherent cultures. Briefly, cells were cultured in DMEM/F12 medium with 10% FBS to attain about 70% confluency. AIP1, AIP2, or vehicle (control) were added for 24 hours and analyzed for proliferation and survival. […] Cell viability/proliferation was measured by MTS added for additional 2-3 hours (FIG. 10A). Microphotographs of the cells were taken with Hoffman modulation-equipped phase-contrast microscope (FIG. 10B; x20 magnification is shown).

In another data set the test system is AKT. In words: AKT kinase activity / basal AKT phosphorylation in HUH-7 cells. Particulars: proliferating HUH-7 cells, 10 μM. Format: cell-based, human.

On to `CCCCCCCC/C=C\CCCCCCCCOCC(O)CNC(C)C` (stereo not shown) [AIP2, Octadecenyloxy-3-isopropylamine-propan-2-ol hydrochloride], for which the “Survival of primary human hepatocytes” value in data set [1] was “did not reduce survival”. Moreover, the IC50 in data set [2] (read-out: IC50, block of development of brain tumor-initiating stem cells) turned out to be 1100 nM; in data set [2] (read-out: IC50, formation and growth of CA1 cancer stem cell-derived carcinoid bodies), 1100 nM; in data set [2] (read-out: IC50, inhibition of brain tumor-initiating cancer stem cells), 1100 nM; in data set [4] (read-out: IC50, growth and survival of human malignant glioblastoma cells (CA1)) it was 6900 nM; in data set [4] (read-out: IC50, proliferating glioblastoma cells) it was 7100 nM. Further, the Blood-brain barrier penetration entry in data set [3] (24 hours after intraperitoneal injection) is reported as “able to cross the blood-brain barrier; also recorded: significant blood-brain-barrier (BBB) penetration”. In addition, the “Tissue accumulation of non-metabolized compound” value in data set [3] (intraperitoneal injection of 2 mg, up to 24 hours) is “did accumulate in brain tissue; also recorded: accumulated in brain and liver in a time-dependent fashion”. The “Effect on adherent CA1 glioblastoma cells” value in data set [4] (20 μM, hydrochloride) is “complete shutdown of metabolic activity; also recorded: destroyed all cancer cells”. The “Basal AKT phosphorylation” value in the data set with AKT is reported as “blocked basal AKT phosphorylation”.

As a reminder, the IC50 is the concentration at which inhibition is half-maximal.
